US11000581B2, “Engineering gut commensal bacteria to express heterologous proteins in their outer membrane vesicles (OMVs) for delivery to the GI-tract” (QUADRAM INSTITUTE BIOSCIENCE, priority 2016, dated 2021)
Values after ≈ are worked out from the molar mass of the structure shown. Where two headings read alike, the source gives them in different places.

Key:
GH361 [1] = assay: MIC of ceftriaxone for GH361; assay type: cell-based, B. thetaiotaomicron; conditions: Bacteroides thetaiotaomicron
Procedure: “α-mannan is a fungal cell wall glycan that contains α-mannosidic linkages similar to those found in the core regions of N-linked glycans present on secreted mucus and epithelial surfaces” (Martens et al., 2011). However, expression levels of the PUL genes involved in mannan utilization in mice fed a diet lacking exogenous α-mannan were only partial when compared to other PULs showing high activity in vivo (Martens et al., 2008). The effectiveness of the mannan induced system was tested in vivo in seven-week-old male C57BL/6J WT mice with established B. thetaiotaomicron within the intestine, housed in a conventional animal facility after treating for 3 days with 1 mg/ml ampicillin and 1 mg/ml neomycin administered via drinking water. To achieve this, the strain GH361 containing the BtCepA gene controlled by the inducible low expression system (Table 1) was administered by oral gavage (1×10^8 colony-forming units (CFU) in 100 μl of phosphate buffered saline) to two groups of 4 mice. […] The MICs of ceftriaxone determined for GH361 were 8 mg/L when cells were grown in the absence of mannan and 64 mg/L when mannan was added to the growth medium. […]

GH361 [2] = assay: Mannan-induced BtCepA expression in the mouse gut (ceftriaxone challenge, fecal CFU); assay type: in vivo, mice
Source text: FIG. 4. In vivo induction of ceftriaxone resistance using exogenous α-mannan. Crosses indicate times of i.p. injections. GA: Group A of mice received mannan in their drinking water. GB: Group B of mice which were given access to regular drinking water. CRO: ceftriaxome.
“α-mannan is a fungal cell wall glycan that contains α-mannosidic linkages similar to those found in the core regions of N-linked glycans present on secreted mucus and epithelial surfaces” (Martens et al., 2011). However, expression levels of the PUL genes involved in mannan utilization in mice fed a diet lacking exogenous α-mannan were only partial when compared to other PULs showing high activity in vivo (Martens et al., 2008). The effectiveness of the mannan induced system was tested in vivo in seven-week-old male C57BL/6J WT mice with established B. thetaiotaomicron within the intestine, housed in a conventional animal facility after treating for 3 days with 1 mg/ml ampicillin and 1 mg/ml neomycin administered via drinking water. To achieve this, the strain GH361 containing the BtCepA gene controlled by the inducible low expression system (Table 1) was administered by oral gavage (1×10^8 colony-forming units (CFU) in 100 μl of phosphate buffered saline) to two groups of 4 mice. One of the groups (Group A) were given drinking water with containing 2.5% (v/v) mannan-oligosaccharide supplement (ActiveMOS, Orffa, Werkendam, The Netherlands) prepared treating the powder (10% w/v) with 1% NaOH at 100° C. for 1 h, cooling and neutralizing to pH7 with dilute HCl solution (Huang et al., 2010). […] Both groups of mice were challenged every other day via i.p. injection with ceftriaxone (0.4 mg/mice), a third-generation cephalosporin that is excreted via the biliary route and affects the colonic microbiota (Arvidsson et al., 1982). The MICs of ceftriaxone determined for GH361 were 8 mg/L when cells were grown in the absence of mannan and 64 mg/L when mannan was added to the growth medium. […]

B. thetaiotaomicron = assay: Minimum inhibitory concentration of ampicillin for variant strains with or without mannan; assay type: cell-based; conditions: Bacteroides thetaiotaomicron, read-out: minimum inhibitory concentration (MIC) of ampicillin
Source text: Since optimization of this novel gene expression system was based upon the use of a heterologous reporter gene, the system was validated by determining if it can be used to study B. thetaiotaomicron genes. For this purpose, the complementation of a deletion mutant of BtcepA (Stentz et al., 2015), a cephalosporinase gene involved in the resistance of bacterial cells to β-lactam antibiotics, was undertaken. The primer pair Lactamase_F and Lactamase_EcoRI_R was used to amplify an 885-bp region from B. thetaiotaomicron VPI-5482 genomic DNA encoding BtcepA. […] The β-lactamase activity was measured after 2 h of induction with increasing concentrations of mannan (Table 4). […] Periplasmic proteins were prepared as described by Stentz et al. (Stentz et al., 2015). β-lactamase activity was assessed spectrophotometrically by hydrolysis of nitrocefin according to the manufacturer's instructions (Calbiochem). […] The basal level measured for the low expression system was negligible since it represented only 2.7% of the activity measured for the wild-type control strain. To establish how these measured activities translate into resistance to β-lactam antibiotics the minimum inhibitory concentration (MIC) of the β-lactam antibiotic ampicillin was determined for each variant strain grown in the presence or absence of mannan.

| Compound | MIC (GH361 [1]; read-out: MIC of ceftriaxone, GH361, mannan added to the growth medium) | MIC (GH361 [1]; read-out: MIC of ceftriaxone, GH361 grown in the absence of mannan) | effect on GH361 population levels (GH361 [2]; ceftriaxone increased to 0.8 mg, both groups) | effect on levels of GH361 (CFU in fecal samples) (GH361 [2]; group A given mannan in drinking water, three successive i.p. doses 0.4 mg/mice) | decrease of levels of GH361 (CFU in fecal samples) (GH361 [2]; group B not given mannan, three successive i.p. doses 0.4 mg/mice) | MIC (B. thetaiotaomicron) |
| --- | --- | --- | --- | --- | --- | --- |
| CO/N=C(\C(=O)N[C@@H]1C(=O)N2C(C(=O)O)=C(CSc3nc(=O)c(=O)[nH]n3C)CS[C@H]12)c1csc(N)n1 [ceftriaxone] | 64 µg/mL | 8 µg/mL | decreased significantly | no effect | approximately 15 fold |  |
| CC1(C)S[C@@H]2[C@H](NC(=O)[C@H](N)c3ccccc3)C(=O)N2[C@H]1C(=O)O [ampicillin] |  |  |  |  |  | 4 to 2050 µg/mL (≈ 11.4 to 5860 µM) |
